Substitutions are numbered along the chain they refer to. Read-outs that look alike come from different tables or passages of the source.
Columns and labels:
RET (658-1114) = target: T1, RET (658-1114) (Homo sapiens, UniProt P07949); experiment: HiBiT-Degradation, RET wild-type degradation assay (Nano-Glo HiBiT Lytic), 293T.144 cells; format: cell-based; settings: for Emax / DC50: 6.0 hours; for Emax: read-out: 293T.144 RET (658-1114) 6.0 hours (Emax); for DC50: read-out: 293T.144 RET (658-1114) 6.0 hours (DC50)
T1 construct: 658-1114; expressed in transfected cells; host or cells: 293T.144 (293T cells, generated in-house)
T1 sequence (P07949 658-1114): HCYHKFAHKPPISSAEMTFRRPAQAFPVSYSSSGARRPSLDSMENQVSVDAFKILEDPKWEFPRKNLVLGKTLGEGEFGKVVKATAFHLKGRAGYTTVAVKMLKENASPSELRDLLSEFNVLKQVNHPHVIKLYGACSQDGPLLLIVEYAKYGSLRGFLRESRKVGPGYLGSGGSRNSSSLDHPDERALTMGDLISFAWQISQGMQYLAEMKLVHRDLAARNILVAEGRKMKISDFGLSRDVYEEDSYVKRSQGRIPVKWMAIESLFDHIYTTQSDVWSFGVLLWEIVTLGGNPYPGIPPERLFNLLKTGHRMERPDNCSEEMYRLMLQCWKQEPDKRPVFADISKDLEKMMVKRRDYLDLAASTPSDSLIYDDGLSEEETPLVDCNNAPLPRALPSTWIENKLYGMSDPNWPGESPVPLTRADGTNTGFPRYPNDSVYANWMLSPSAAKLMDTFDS
Procedure, shortened: (§1)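 6 h treatment, 293T.144 (WT) / 293T.165 (G810R) cells ectopically expressing HiBiT-fused RET KD; 11-pt half-log dilution, top 10 μM, n=2. Nano-Glo HiBiT lytic detection, luminescence. Output: DC50, Emax (% protein remaining).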

RET(KD: 658-1114 G810R) = target: T2, RET(KD: 658-1114 G810R) (Homo sapiens, UniProt P07949, G810R); experiment: HiBiT-Degradation, RET G810R degradation assay (Nano-Glo HiBiT Lytic), 293T.165 cells; format: cell-based; settings: for Emax / DC50: 6.0 hours; for Emax: % remaining protein, read-out: 293T.165 RET(KD: 658-1114 G810R) 6.0 hours (Emax); for DC50: read-out: 293T.165 RET(KD: 658-1114 G810R) 6.0 hours (DC50)
T2 construct: 658-1114; expressed in transfected cells; host or cells: 293T.165 (293T cells, generated in-house)
T2 sequence (P07949 658-1114 G810R): T1 sequence (P07949 658-1114) with G153R
Procedure, shortened: as §1

[1] = half-maximal degradation concentration

Compound	293T.144 RET (658-1114) 6.0 hours (IP) [nM] (RET (658-1114))	Emax (RET (658-1114); % remaining protein) [%]	DC50 (RET (658-1114); [1]) [nM]	293T.165 RET(KD: 658-1114 G810R) 6.0 hours (IP) [nM] (RET(KD: 658-1114 G810R))	Emax (RET(KD: 658-1114 G810R)) [%]	DC50 (RET(KD: 658-1114 G810R); [1]) [nM]	293T.144 RET (658-1114) 6.0 hours (IP) [nM] (RET (658-1114); HiBiT-Degradation)	DC50 (RET (658-1114); HiBiT-Degradation) [nM]	Emax (RET (658-1114); HiBiT-Degradation) [%]	293T.165 RET(KD: 658-1114 G810R) 6.0 hours (Emax) (RET(KD: 658-1114 G810R); HiBiT-Degradation)	293T.165 RET(KD: 658-1114 G810R) 6.0 hours (IP) [nM] (RET(KD: 658-1114 G810R); HiBiT-Degradation)	DC50 (RET(KD: 658-1114 G810R); HiBiT-Degradation) [nM]
CCC1(C(=O)NC(C)C)CCN(c2ccc(-c3nc(-c4ccc(C5CCN(C(=O)CN6CC(c7ccc(NC8CCC(=O)NC8=O)cc7F)C6)CC5)cc4)cn4ncc(C#N)c34)cn2)CC1 (centres unmarked) [Compound 174, 1-[5-[3-cyano-6-[4-[1-[2-[3-[4-[(2,6-dioxo-3-piperidyl)amino]-2-fluoro-phenyl]azetidin-1-yl]acetyl]-4-piperidyl]phenyl]pyrazolo[1,5-a]pyrazin-4-yl]-2-pyridyl]-4-ethyl-N-isopropyl-piperidine-4-carboxamide]	++++ (<50 nM = ++++)	< 30	< 50	++++ (<50 nM = ++++)	< 50	< 100	–	–	–	–	–	–
N#Cc1cnn2cc(-c3cnn(C4CCN(C(=O)CN5CCC(c6ccc(NC7CCC(=O)NC7=O)cc6F)CC5)CC4)c3)cc(-c3ccc(N4CCN(C(=O)Cc5ccc(F)cn5)CC4)nc3)c12 (centres unmarked) [Compound 5, 6-[1-[1-[2-[4-[4-[(2,6-dioxo-3-piperidyl)amino]-2-fluoro-phenyl]-1-piperidyl]acetyl]-4-piperidyl]pyrazol-4-yl]-4-[6-[4-[2-(5-fluoro-2-pyridyl)acetyl]piperazin-1-yl]-3-pyridyl]pyrazolo[1,5-a]pyridine-3-carbonitrile]	–	–	–	–	< 30	< 50	++++ (< 50 nM = ++++)	< 50	< 30	++++ (< 30% = ++++)	++++ (< 50 nM = ++++)	< 50
CCC1(C(=O)NC(C)C)CCN(c2ccc(-c3nc(-c4cnn(C5CCN(C(=O)CN6C7CCC6CC(c6ccc(NC8CCC(=O)NC8=O)cc6F)C7)CC5)c4)cn4ncc(C#N)c34)cn2)CC1 (centres unmarked) [Compound 94, 1-[5-[3-cyano-6-[1-[1-[2-[3-[4-[(2,6-dioxo-3-piperidyl)amino]-2-fluoro-phenyl]-8-azabicyclo[3.2.1]octan-8-yl]acetyl]-4-piperidyl]pyrazol-4-yl]pyrazolo[1,5-a]pyrazin-4-yl]-2-pyridyl]-4-ethyl-N-isopropyl-piperidine-4-carboxamide]	++++ (<50 nM = ++++)	< 30	< 50	++++ (<50 nM = ++++)	< 30	< 50	–	–	–	–	–	–
N#Cc1cnn2cc(-c3cnn(C4CCN(C(=O)CC5(O)CCN(c6ccc(NC7CCC(=O)NC7=O)cc6F)CC5)CC4)c3)nc(-c3ccc(N4CC5CC(C4)N5Cc4ccccc4)nc3)c12 (centres unmarked) [Compound 176, 4-(6-(6-benzyl-3,6-diazabicyclo[3.1.1]heptan-3-yl)pyridin-3-yl)-6-(1-(1-(2-(1-(4-((2,6-dioxopiperidin-3-yl)amino)-2-fluorophenyl)-4-hydroxypiperidin-4-yl)acetyl)piperidin-4-yl)-1H-pyrazol-4-yl)pyrazolo[1,5-a]pyrazine-3-carbonitrile]	++++ (<50 nM = ++++)	< 30	< 50	++++ (<50 nM = ++++)	< 30	< 50	–	–	–	–	–	–
CCC1(C(=O)NC2CCCC2)CCN(c2ccc(-c3nc(-c4cnn([C@H]5CC[C@H](N6CCC(c7ccc(N[C@H]8CCC(=O)NC8=O)cc7F)CC6)CC5)c4)cn4ncc(C#N)c34)cn2)CC1 [Compound 141, 1-[5-[3-cyano-6-[1-[4-[4-[4-[[(3S)-2,6-dioxo-3-piperidyl]amino]-2-fluoro-phenyl]-1-piperidyl]cyclohexyl]pyrazol-4-yl]pyrazolo[1,5-a]pyrazin-4-yl]-2-pyridyl]—N-cyclopentyl-4-ethyl-piperidine-4-carboxamide]	++++ (<50 nM = ++++)	< 30	< 50	++++ (<50 nM = ++++)	< 30	< 50	–	–	–	–	–	–
CCC1(C(=O)Nc2ccc(F)cc2)CCN(c2ccc(-c3nc(-c4cnn(C5CCN(C(=O)CC6(O)CCN(c7ccc(NC8CCC(=O)NC8=O)cc7Cl)CC6)CC5)c4)cn4ncc(C#N)c34)cn2)CC1 (centres unmarked) [Compound 100, 1-[5-[6-[1-[1-[2-[1-[2-chloro-4-[(2,6-dioxo-3-piperidyl)amino]phenyl]-4-hydroxy-4-piperidyl]acetyl]-4-piperidyl]pyrazol-4-yl]-3-cyano-pyrazolo[1,5-a]pyrazin-4-yl]-2-pyridyl]-4-ethyl-N-(4-fluorophenyl)piperidine-4-carboxamide]	++++ (<50 nM = ++++)	< 30	< 50	++++ (<50 nM = ++++)	< 30	< 100	–	–	–	–	–	–

The remaining lines, values ahead:

293T.144 RET (658-1114) 6.0 hours (IP) [nM] (RET (658-1114))	Emax (RET (658-1114); % remaining protein) [%]	DC50 (RET (658-1114); [1]) [nM]	293T.165 RET(KD: 658-1114 G810R) 6.0 hours (IP) [nM] (RET(KD: 658-1114 G810R))	Emax (RET(KD: 658-1114 G810R)) [%]	DC50 (RET(KD: 658-1114 G810R); [1]) [nM]	293T.144 RET (658-1114) 6.0 hours (IP) [nM] (RET (658-1114); HiBiT-Degradation)	DC50 (RET (658-1114); HiBiT-Degradation) [nM]	Emax (RET (658-1114); HiBiT-Degradation) [%]	293T.165 RET(KD: 658-1114 G810R) 6.0 hours (Emax) (RET(KD: 658-1114 G810R); HiBiT-Degradation)	293T.165 RET(KD: 658-1114 G810R) 6.0 hours (IP) [nM] (RET(KD: 658-1114 G810R); HiBiT-Degradation)	DC50 (RET(KD: 658-1114 G810R); HiBiT-Degradation) [nM]	Compound
++++ (<50 nM = ++++)	< 30	< 50	++++ (<50 nM = ++++)	< 30	< 100	–	–	–	–	–	–	CCC1(C(=O)NC[C@H]2C[C@@H](F)C2)CCN(c2ccc(-c3nc(-c4cnn([C@H]5CC[C@H](N6CCN(c7ccc(NC8CCC(=O)NC8=O)cc7F)CC6)CC5)c4)cn4ncc(C#N)c34)cn2)CC1 (some centres unmarked) [Compound 210, 1-[5-[3-cyano-6-[1-[4-[4-[4-[(2,6-dioxo-3-piperidyl)amino]-2-fluoro-phenyl]piperazin-1-yl]cyclohexyl]pyrazol-4-yl]pyrazolo[1,5-a]pyrazin-4-yl]-2-pyridyl]-4-ethyl-N-[(3-fluorocyclobutyl)methyl]piperidine-4-carboxamide]
++++ (<50 nM = ++++)	< 30	< 50	++++ (<50 nM = ++++)	< 30	< 50	–	–	–	–	–	–	N#Cc1cnn2cc(-c3cnn(C4CCN(C(=O)CC5(O)CCN(c6ccc(NC7CCC(=O)NC7=O)cc6F)CC5)CC4)c3)cc(-c3ccc(N4CCC(c5cccc(O)c5)CC4)nc3)c12 (centres unmarked) [Compound 198, 6-[1-[1-[2-[1-[4-[(2,6-dioxo-3-piperidyl)amino]-2-fluoro-phenyl]-4-hydroxy-4-piperidyl]acetyl]-4-piperidyl]pyrazol-4-yl]-4-[6-[4-(3-hydroxyphenyl)-1-piperidyl]-3-pyridyl]pyrazolo[1,5-a]pyridine-3-carbonitrile]
++++ (<50 nM = ++++)	< 30	< 50	++++ (<50 nM = ++++)	< 50	< 100	–	–	–	–	–	–	CC(C)CC(=O)N1CCN(c2ccc(-c3nc(-c4cnn(C5CCN(C(=O)CC6CCN(c7ccc(NC8CCC(=O)NC8=O)cc7F)CC6)CC5)c4)cn4ncc(C#N)c34)cn2)CC1 (centres unmarked) [Compound 185, 6-(1-(1-(2-(1-(4-((2,6-dioxopiperidin-3-yl)amino)-2-fluorophenyl)piperidin-4-yl)acetyl)piperidin-4-yl)-1H-pyrazol-4-yl)-4-(6-(4-(3-methylbutanoyl)piperazin-1-yl)pyridin-3-yl)pyrazolo[1,5-a]pyrazine-3-carbonitrile]
++++ (<50 nM = ++++)	< 30	< 50	+++ (<100 nM = +++)	< 30	< 50	–	–	–	–	–	–	CCC1(C(=O)NC(C)(C)C)CCN(c2ccc(-c3nc(-c4cnn([C@H]5CC[C@H](N6CCN(c7c(F)cc(N[C@@H]8CCC(=O)NC8=O)cc7F)CC6)CC5)c4)cn4ncc(C#N)c34)cn2)CC1 (racemic) [Compound 219, N-tert-butyl-1-[5-[3-cyano-6-[1-[4-[4-[2,6-difluoro-4-[[rac-(3R)-2,6-dioxo-3-piperidyl]amino]phenyl]piperazin-1-yl]cyclohexyl]pyrazol-4-yl]pyrazolo[1,5-a]pyrazin-4-yl]-2-pyridyl]-4-ethyl-piperidine-4-carboxamide]

Source: patent US12661410B2, “Compounds for targeted degradation of RET” (C4 Therapeutics, Inc., priority 2020, dated 2026)
